# Experiment: Human HepG2 cell viability assay in 384 well format
# Assay type: toxicity, cell-based
# Design: dose 125 nL, time 70.5 hour; concentration not given beside the values
# Settings: HepG2 cells, read-out: Inhibition
row,SMILES,cytotoxicity at 70.5 h [%]
1,N[C@@H]1CC[C@@H](Nc2nccc(CCC(F)(F)F)n2)C1,-6.78
2,COc1ccc(S(=O)(=O)N2CCC(Cn3ccnc3)CC2)cc1,-6.35
3,NCC1CCC2(CCN(C(=O)c3ccccn3)CC2)CO1 (stereo unspecified),2.02
4,CCN1CCN(C(C)CNC(=O)Nc2nnc(C)s2)CC1 (stereo unspecified),-10.5
5,Cc1noc(C2CCCN(C(=O)CCNc3ncccn3)C2)n1 (stereo unspecified),-13.2
6,CS(=O)(=O)NC1CCCN(Cc2ccc(OCc3ccccn3)cc2)C1 (stereo unspecified),-1.69
7,Cn1cnc(S(=O)(=O)NCCCN2CCCC2)c1Cl,-4.58
8,CC(C)N(CC1CCCN(CC(N)=O)C1)C(=O)OC(C)(C)C (stereo unspecified),-12.8
9,Cc1cccc(C(=O)N2CCO[C@H]3[C@H](OCCN(C)C)CC[C@@H]32)n1,-3.76
10,Cc1nccn1C1CCCN(C(=O)CCCNc2ncccn2)C1 (stereo unspecified),-6.43
11,CC(C)CS(=O)(=O)N1CCC2(CC1)CCn1c(-c3cnn(C)c3)cnc12,32.9
12,CN1CCN(c2ccc(Br)cc2NC(=O)c2ccco2)CC1,2.12
13,Cn1nccc1C(=O)N1CCN(C(=O)C2CC2)[C@@H]2CS(=O)(=O)C[C@@H]21,-5.45
14,C[C@@H]1CN(Cc2ccc(-c3ccncc3)cc2F)CC(C(N)=O)O1 (stereo partly specified),-0.906
15,CC(NC(=O)CCc1cccs1)c1nnc2n1CCC2 (stereo unspecified),-36.3
16,Cc1ccc(N2CCCC(N(C)Cc3cc(C)no3)C2)nn1 (stereo unspecified),-2.5
17,CCn1ccnc1CN1CCCN(C(=O)Cc2ccc(C)s2)CC1,26.4
18,O=C(C1CCCCC1)N1CCO[C@@H]2CNC[C@@H]21,-2.15
19,NC(=O)c1cnc(NC2CCN(C(=O)C3CC3)CC2)c(Cl)c1,-0.537
20,CC(C)(C)OC(=O)Cn1cccc(S(=O)(=O)N2CCCC2)c1=O,-12.8
21,CS(=O)(=O)N1C[C@@H]2CCN(C(=O)c3ccco3)[C@@H]2C1,-2.6
22,Cn1nnc2c1C(COCc1ccccn1)CN(C(=O)c1cccs1)C2 (stereo unspecified),5.64
23,Fc1cnc(N2CCCC3(CN(Cc4cccs4)CCO3)C2)nc1 (stereo unspecified),2.35

row,SMILES,cytotoxicity at 70.5 h [%]
1,Cc1noc(C(C)N2CCN(Cc3noc(C4CC4)n3)CC2)n1 (stereo unspecified),-8.62
2,CS(=O)(=O)CCNCc1ccc(OCc2ccncc2)cc1,19.2
3,COCC(=O)N1CCC2(CC1)COCCN2Cc1ccc(F)cc1,-11.6
4,CCN(CC)CCn1ccnc1-c1cccc(C#N)c1,-4.77
5,Cc1cc(CC(C)NC2CCN(CC(C)C)CC2)[nH]n1 (stereo unspecified),-10.6
6,CNC(=O)[C@H]1C[C@@H]2CN(Cc3ccccc3)C[C@H]1O2,-5.88
7,Cc1cccc(C(C(=O)N(C)CCc2cn[nH]c2)N(C)C)c1 (stereo unspecified),-8.71
8,O=C(c1scc2c1OCCO2)N1CCOC(CCc2ccccc2)C1 (stereo unspecified),1.27
9,COCCN(C)C(C(=O)O)c1ccc(F)c(Cl)c1 (stereo unspecified),30.8
10,CCN1CCC12CCN(C(=O)c1cc(C)on1)C2 (stereo unspecified),-2.64
11,O=C1CC2(CCN(Cc3ncc[nH]3)CC2)CN1Cc1cc(F)cc(F)c1,-3.59
12,CCN(CCO)C(=O)c1cc(Cn2c(C)nc3ccccc32)[nH]n1,-9.25
13,CC(C)N1CCC(Cc2cncc(-c3cc(F)ccc3C(=O)O)n2)C1 (stereo unspecified),-6.34
14,O=C(C1CC(=O)N(c2ccccc2)C1)N1CCC2(CC1)OCCO2 (stereo unspecified),5.21
15,N#CC1(NC(=O)c2ccc(F)c(Br)c2)CCSC1 (stereo unspecified),-8.42
16,O=C(NC1CCCNC1)c1cc(COc2cccc(C(F)(F)F)c2)[nH]n1 (stereo unspecified),-0.657
17,Cc1ccc(Sc2ccc(N3CCCC(C(=O)O)C3)nn2)cc1 (stereo unspecified),0.439
18,Cc1nc(N(C)C)nc(C)c1NC(=O)c1ccco1,-3.93
19,Cc1nc(C)n(CC(=O)N2CCCC(c3nc(C)n4c(C)csc34)C2)n1 (stereo unspecified),0.595
20,CCc1csc(C2CCCN(C(=O)c3ccc(=O)n(C)n3)C2)n1 (stereo unspecified),-11.3
21,O=C(Cc1ccccn1)N1CCC2(CCCN(CC3CCOCC3)C2)C1 (stereo unspecified),-0.432
22,OC1CCCN(CCNc2ncc(Cl)cc2F)C1 (stereo unspecified),16.2
23,CC(C)(N)C(=O)N1CCCC1c1cncc(Oc2ccccc2)n1 (stereo unspecified),2.03

row,SMILES,cytotoxicity at 70.5 h [%]
1,CN(Cc1cnn(-c2ccccc2)n1)CC1CCCN1c1cccnn1 (stereo unspecified),4.15
2,COC[C@@]12CCC[C@@H]1CN(C(=O)N1CCCC1)C2,-6.53
3,CC1CN(C)CCN1Cc1cccc(C(=O)NCc2ccco2)c1 (stereo unspecified),27.4
4,Cc1cc(C)c(C(=O)Nc2cccc(CN3CCC(CO)CC3)c2)o1,4.26
5,CCn1cc(CN2CCN(C)C3(CCC(=O)N(CC4CC4)CC3)C2)cn1 (stereo unspecified),1.18
6,Cc1nc(C)n(CC2CCCN2CC(=O)Nc2nncs2)n1 (stereo unspecified),-0.801
7,O=C(COc1cccc2c1CCC2=O)NCC(F)(F)F,-2.4
8,Cc1cc(CN2CC[C@H]3C(=O)N(c4ccsc4)CCO[C@H]3C2)no1,-9.15
9,Cc1nn(C)c(N(C)C)c1CNCc1cccc(Cn2ccnc2)c1,3.64
10,O=C(CN1CCCNC1=O)N(Cc1ccccc1)CC(F)F,1.59
11,O[C@H]1CN(Cc2c[nH]nc2-c2ccccc2)CC[C@@]12CCCO2,15.7
12,O=C(c1cocn1)N1CC[C@H]2OCC[C@@]2(COc2ncccc2F)C1,-15.1
13,NS(=O)(=O)CCNC(=O)CCc1cc(Br)cs1,1.86
14,O=C(NS(=O)(=O)c1ccccc1C(F)(F)F)c1cccc2c1OCCO2,-75.1
15,Cc1noc(C)c1CN1CC[C@H](OCC2CC2)[C@@H](Cc2ccccc2)C1,3.46
16,N#Cc1ccc(NCc2cccc(COC3CCOCC3)c2)nc1,-2.1
17,CN(CCCc1nccn1C)C(=O)C1CCN(C(=O)C2CCC2)CC1,3.53
18,COCCc1noc(CN2CCC(c3ccccc3C(=O)O)C2)n1 (stereo unspecified),-20.1
19,COc1cccc(COCC(=O)N2CCC(CC(N)=O)CC2)c1,4.02
20,N#Cc1ccc(OCCN2CCNC(=O)C2c2cccs2)cc1 (stereo unspecified),-6.87
21,Cc1cccn2cc(CNS(=O)(=O)N3CCOCC3)nc12,-5.24
22,CNC(=O)[C@@H](C1CC1)N1CCC[C@H]1C(=O)NCC(C)C,-7.95
23,CC(=O)N1CC2(CCN(C(=O)c3ccoc3)C2)C1,-2.66

row,SMILES,cytotoxicity at 70.5 h [%]
1,CCc1noc(CN(CCc2ccccc2)C2CCN(C)CC2)n1,25.9
2,Cc1cccc(CNC2CC(=O)N(Cc3cccc(F)c3)C2)c1 (stereo unspecified),-4.77
3,Cc1cccc(C(=O)N2CCC[C@]3(C[C@@H](OCC4CC4)CO3)C2)n1,-13.9
4,Cc1ccc2[nH]nc(C(=O)NCC3CCN(Cc4c[nH]cn4)C3)c2c1 (stereo unspecified),-5.7
5,c1ccc(Cc2noc(-c3ccc(NCC4CCCOC4)nc3)n2)cc1 (stereo unspecified),-2.44
6,CC(C)N(C(=O)Cn1c(-c2ccco2)cc2cccnc21)C(C)C,-15.1
7,O=C(N[C@@H]1CC[C@@H](n2ccnc2)[C@@H]1O)c1cc2c(s1)CCC2,1.51
8,CCOc1ccc(CC(=O)N(CCC(=O)OC)CC2CCCO2)cc1 (stereo unspecified),-14.3
9,CC(C)CN1C(=O)C2(CCN(Cc3ccc(F)cc3)C2)c2ccccc21 (stereo unspecified),-0.325
10,O=C1CN(Cc2occc2C(=O)NCCc2ccc(F)cc2)CCN1,2.4
11,Cc1nc(C)c(C(=O)N2CCCc3c(F)cccc32)o1,-5.01
12,CN(C)CCN1C[C@@H]2CN(C(=O)C3CC=CC3)C[C@@H]2C1=O,-10.8
13,CCOc1ncccc1CNS(=O)(=O)c1ccc2c(c1)CCC2,4.98
14,CN(Cc1ccccc1)CC1CC2(CO1)CN(Cc1cnn(C)c1)C2 (stereo unspecified),-6.11
15,NC(=O)N1CCC2(CCN(C(=O)c3cccnc3)CC2)C1,0.925
16,CN(C)C(=O)N1CC(C(=O)NCC2CC2)C2(CCOCC2)C1 (stereo unspecified),3.79
17,Cc1nc(C)n(CC2CCCN(c3ccc(C#N)cn3)C2)n1 (stereo unspecified),-3.58
18,Oc1cc(-c2cccs2)nc(C2CCCN(CC3=CCCOC3)C2)n1 (stereo unspecified),-9.88
19,CCOCCC(=O)N1C[C@H]2CC[C@@H]1CN(Cc1ccncc1)C2,-11.6
20,CNc1nc(C(=O)N2C[C@H]3CC[C@@H]2CN(S(C)(=O)=O)C3)cs1,12
21,CCn1nc2c(cc1=O)CN(Cc1nc(C)c(C)o1)CC2,-15.3
22,Cc1cnc(N2C[C@@H]3[C@@H](C(=O)NC(C)C)CCS(=O)(=O)[C@@H]3C2)nc1,18
23,O=C(CN1CCCC(Cn2cncn2)C1)NCCc1cccs1 (stereo unspecified),0.827

row,SMILES,cytotoxicity at 70.5 h [%]
1,CCCc1noc(C2CCN(S(=O)(=O)c3cccs3)CC2)n1,-2.96
2,COc1ccccc1[C@@H]1CN(Cc2cc(C(C)(C)C)[nH]n2)C[C@H]1C(=O)O,-7.86
3,Cc1ccc(F)cc1S(=O)(=O)NCc1cccc(C(=O)N2CCCC2)c1,-2.82
4,O=C(NCc1cccnc1N1CCCCC1)c1ccc2cc[nH]c2c1,-15.2
5,N#Cc1ccccc1OCCN1CCN(C(=O)C2CCCC2)CC1,7.87
6,N#Cc1cccc(N2CCCC3(CN(C(=O)[C@H]4CCCO4)CCO3)C2)c1 (stereo partly specified),-0.958
7,Cc1cc(N(C)C)nc(C2CCCNC2)n1 (stereo unspecified),-1.07
8,CC(C)(NC(=O)c1scnc1Cl)c1ccccc1,-12.8
9,CCc1nc(CC(=O)N2CCC(C(=O)N3CCCC3)CC2)cs1,-9.83
10,CCOc1ccc2[nH]c3c(N(C)CC4OCCO4)ncnc3c2c1,-21.1
11,O=S(=O)(c1cccs1)N1CCCCC1c1ccn[nH]1 (stereo unspecified),-2.26
12,Cc1cc(CN2CCN(CC(O)c3ccc(C)c(C)c3)CC2)no1 (stereo unspecified),-7.74
13,CN(Cc1ccc(F)cc1)[C@@H]1CN(S(=O)(=O)N(C)C)C[C@H]1O,-0.678
14,CSCCC(C)NC(=O)N1CCSC(C)(C)C1 (stereo unspecified),22.4
15,Cc1nc(O)cc(CNC(=O)CC[C@@H]2CCCN3CCCC[C@H]23)n1,-9.94
16,CC(=O)N1CCC(C(=O)N(CC(F)F)c2cccc(Cl)c2)CC1,0.334
17,Cc1ccccc1C(=O)CN1C(=O)c2ccccc2CS1(=O)=O,5.68
18,CC(=O)N1CCC(c2nccnc2Nc2ncc(C)s2)CC1,-10.6
19,CN(C)C(C(=O)N1CCSCC1)c1ccccc1F (stereo unspecified),-5.06

# — ChEMBL document CHEMBL3507680, “University of Dundee, Gates Library screen for HepG2 cell viability”
